Measurements reported in patent US20230140983A1, “PYRIDAZINE DERIVATIVES FOR MODULATING NUCLEIC ACID SPLICING” (REMIX THERAPEUTICS INC., priority 2020, published 2023).
Where a name gives a salt, the structure may show the parent alone. Read-outs that look alike come from different tables or passages of the source.

Tests used:
Format in all cases: cell-based
HTT [1] = test: Splicing assay (RT-qPCR on cell lysates) monitoring HTT splice variants: AJ and CJ mRNA; conditions: concentration having 50% response
Method in brief: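 Cell lysates were analysed by RT-qPCR, with ΔCt taken against a housekeeping gene and normalised to DMSO to give RQ by 2^(−ΔΔCt). Assay windows were set at 9 ΔCt for AJ and 3.5 ΔCt for CJ, and 4-parameter fits gave AC50 for the AJ increase and IC50 for the CJ decrease.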

HTT [2] = test: Gene panel canonical junction qPCR assay, HTT CJ mRNA; conditions: Table 9, CJ mRNA decrease, read-out: HTT IC50 (decrease in CJ mRNA levels)
Procedure: (§1) To set up 10 uL RT-qPCR reactions, cell lysates were transferred to 384-well qPCR plates containing the master mix according to the table below. The plates were sealed, gently vortexed, and spun down before the run. The volumes were adjusted accordingly in some instances where the reaction was carried in 20 uL. The table below summarizes the components of the RT-qPCR reactions:
(§2) The RT-qPCR reaction was performed using a QuantStudio (ThermoFisher) under the following fast cycling conditions. All samples and standards were analyzed at least in duplicate. In some instances, bulk room temperature (RT) step of 5-10 minutes was completed for all plates before proceeding with qPCR. The table below summarizes the PCR cycle:
(§3) The data analysis was performed by first determining the ΔCt vs the housekeeper gene. This ΔCt was then normalized against the DMSO control (ΔΔCt) and converted to RQ (relative quantification) using the 2^(−ΔΔCt) equation. The RQ were then converted to a percentage response by arbitrarily setting an assay window of 3.5 ΔCt for HTT-CJ and an assay window of 9 ΔCt for HTT-AJ. […] The percentage response was then fitted to the 4 parametric logistic equation to evaluate the concentration dependence of compound treatment. The increase in AJ mRNA is reported as AC50 (compound concentration having 50% response in AJ increase) while the decrease in CJ mRNA levels is reported as IC50 (compound concentration having 50% response in CJ decrease).
(§4) Additional studies were carried out for a larger panel of genes using the protocol provided above. The junction between flanking upstream and downstream exons was used to design canonical junction qPCR assays. At least one of the forward primer, reverse primer or the CY5-labeled 5′ nuclease probe (with 3′ quencher such as ZEN/Iowa Black FQ) was designed to overlap with the exon junction to capture the CJ mRNA transcript. BLAST was used to confirm the specificity of the probeset and parameters such as melting temperature, GC content, amplicon size, and primer dimer formation are considered during their design. Data for the decrease in CJ mRNA levels for three exemplary genes (HTT, SMN2, and Target C) analyzed in this panel are reported as IC50 (compound concentration having 50% response in CJ decrease).

SMN2 = test: Gene panel canonical junction qPCR assay, SMN2 CJ mRNA; conditions: Table 9, CJ mRNA decrease, read-out: SMN2 IC50 (decrease in CJ mRNA levels)
Procedure: as §1, §2, §3, §4

Target C = test: Gene panel canonical junction qPCR assay, Target C CJ mRNA; conditions: Table 9, CJ mRNA decrease, read-out: Target C IC50 (decrease in CJ mRNA levels)
Procedure: as §1, §2, §3, §4

[3] = Table 8, decrease in CJ mRNA, read-out: HTT CJ AC50
[4] = Table 8, increase in AJ mRNA, read-out: HTT AJ AC50
[5] = Table 7, decrease in CJ mRNA, read-out: HTT CJ AC50
[6] = Table 7, increase in AJ mRNA, read-out: HTT AJ AC50

Row | Compound | AC50 (HTT [1]; [3]) [µM] | AC50 (HTT [1]; [4]) [µM] | IC50 (HTT [2]) [µM] | IC50 (SMN2) [µM] | IC50 (Target C) [µM] | AC50 (HTT [1]; [5]) [µM] | AC50 (HTT [1]; [6]) [µM]
1 | Fc1cc(-c2ccc(O[C@@H]3C[C@H]4CC[C@@H](C3)N4)nn2)c2[nH]ncc2c1-c1cn[nH]c1 [Compound 216, 7-[6-[(exo)-8-azabicyclo[3.2.1]octan-3-yloxy]pyridazin-3-yl]-5-fluoro-4-(1H-pyrazol-4-yl)-1H-indazole] | < 0.1 | < 0.1 | < 0.1 | < 0.1 | 0.1 to 1 |  | 
2 | c1nc2c(-c3cn[nH]c3)ccc(-c3ccc(S[C@@H]4C[C@H]5CC[C@@H](C4)N5)nn3)c2s1 [Compound 200, 7-{6-[(exo)-8-azabicyclo[3.2.1]octan-3-ylsulfanyl]pyridazin-3-yl}-4-(1H-pyrazol-4-yl)-1,3-benzothiazole] | > 10 | > 10 | > 10 | > 10 | > 10 |  | 
3 | CN(c1ccc(-c2ccc(-c3cn[nH]c3)c3ncsc23)nn1)[C@H]1C[C@]2(C)CC[C@](C)(C1)N2 [Compound 204, (exo-)-N,1,5-trimethyl-N-[6-[4-(1H-pyrazol-4-yl)-1,3-benzothiazol-7-yl]pyridazin-3-yl]-8-azabicyclo[3.2.1]octan-3-amine] | < 0.1 | < 0.1 | < 0.1 | < 0.1 | < 0.1 |  | 
4 | c1nc2c(-c3cn[nH]c3)ccc(-c3ccc(N4CCC5(CC4)CNC5)nn3)c2s1 [Compound 188] | > 10 | > 10 | > 10 | > 10 | > 10 | > 5 | > 5
5 | c1nc2c(-c3cn[nH]c3)ccc(-c3ccc(N4CC5(CCCNC5)C4)nn3)c2s1 [Compound 187, 7-(6-{2,6-diazaspiro [3.5]nonan-2-yl}pyridazin-3-yl)-4-(1H-pyrazol-4-yl)-1,3-benzothiazole] | > 10 | > 10 | > 10 | 1 to 10 | > 10 | > 5 | > 5
6 | CCN(c1ccc(-c2ccc(-c3cn[nH]c3)c3ncsc23)nn1)[C@@H]1C[C@H]2CC[C@@H](C1)N2 [Compound 203, (exo-)-N-ethyl-N-[6-[4-(1H-pyrazol-4-yl)-1,3-benzothiazol-7-yl]pyridazin-3-yl]-8-azabicyclo[3.2.1]octan-3-amine] | 0.1 to 1 | 0.1 to 1 | 0.1 to 1 | < 0.1 | 0.1 to 1 |  | 
7 | c1nc2c(-c3cn[nH]c3)ccc(-c3ccc(N4CCC5(CCNCC5)C4)nn3)c2s1 [Compound 190] | > 10 | > 10 | > 10 | > 10 | > 10 |  | 
8 | CN(c1ccc(-c2ccc(-c3ccn(C)c(=O)c3)c3scnc23)nn1)C1CC(C)(C)NC(C)(C)C1 [Compound 174] | 1 to 10 | 1 to 10 | 1 to 10 | 0.1 to 1 | > 10 |  | 
9 | COc1cc(-c2ccc(-c3ccc(N(C)C4CC(C)(C)NC(C)(C)C4)nn3)c3ncsc23)ccn1 [Compound 177] | > 10 | > 10 | > 10 | 1 to 10 | > 10 |  | 
10 | CN(c1ccc(-c2ccc(-c3cnn(C)c3)c3scnc23)nn1)C1CC(C)(C)NC(C)(C)C1 [Compound 175, N-methyl-6-[7-(1-methylpyrazol-4-yl)-1,3-benzothiazol-4-yl]-N-(2,2,6,6-tetramethylpiperidin-4-yl)pyridazin-3-amine] | > 10 | 1 to 10 | > 10 | 1 to 10 | > 10 |  | 
11 | CCN(c1ccc(-c2ccc(-c3cn[nH]c3)c3ncsc23)nn1)C1CCNCC1 [Compound 224, N-ethyl-N-(piperidin-4-yl)-6-[4-(1H-pyrazol-4-yl)-1,3-benzothiazol-7-yl]pyridazin-3-amine] | > 10 | > 10 | > 10 | 1 to 10 | > 10 |  | 
12 | CN1C[C@@H]2CN(c3ccc(-c4ccc(-c5cn[nH]c5)c5ncsc45)nn3)C[C@@H]2C1 [Compound 198, 7-{6-[(exo)-5-methyl-hexahydropyrrolo[3,4-c]pyrrol-2-yl]pyridazin-3-yl}-4-(1H-pyrazol-4-yl)-1,3-benzothiazole hydrochloride] | > 10 | > 10 | > 10 | 0.1 to 1 | > 10 |  | 
